Results taken from patent US8420836B2, “NFAT signal inhibitor and hair-growing agent” (Kao Corporation, priority 2008, dated 2013).
“Also recorded” adds a separate entry of the source.

Legend:
swine hair follicles = assay: Evaluation of hair shaft elongation by swine hair follicle organ culture; assay type: cell-based; details: isolated pig hair follicles cultured 8 days; solvent control (ethanol) taken as 100%; FIG. 6
Procedure: Evaluation of Hair Shaft Elongation by Swine Hair Follicle Organ Culture
The skin of buttocks of a pig for meat was separated into an appropriate size, and excess fatty tissue was removed. The pigskin was disinfected by immersing in a hibitane solution (5% hibitane solution (Dainippon Sumitomo Pharma Co., Ltd.) diluted to 5 to 20 times with water) for 5 minutes to 10 minutes under sterile conditions, and after that was washed several times with D-PBS. Subsequently, hair follicles were isolated from the washed pigskin under a stereoscopic microscope, and the hair follicles were collected in William's Medium E (Invitrogen) medium. […]
The component A and component B obtained in Example 1 were added to the above-mentioned medium, and the system was cultured for 8 days, together with an ethanol-added group, which was a solvent control. Stereomicroscopic images of the culture were captured on the day of culture initiation (zeroth day) and on the eighth day with a CCD camera (Pixera Model No. PVC 100C), and from those images, the length from the base of the hair bulb to the tip of the hair shaft was measured. Thereafter, the hair shaft elongation ratios of the component A and component B obtained in Example 1 were calculated, with the amount of hair shaft elongation of the solvent control group before and after culture being taken as 100%.

NFAT signal = NFAT signal inhibitory effect: pNFAT-Luc luciferase reporter assay with ionomycin stimulation; assay type: cell-based, human; details: HEK293 cells transfected with pNFAT-Luc; 1 μM ionomycin; assay after 8 hours; FIG. 4
Procedure: (1) Materials and Methods for Evaluation System
In this evaluation system, human kidney (HEK293) cells were purchased from ATCC (American Type Culture Collection) and used. HEK293 cells were cultured in DMEM (High glucose, 10% heat-inactivated FBS) under the conditions of 37° C. and 5% CO2.
In this evaluation system, HEK293 cells transfected with a plasmid having firefly luciferase introduced into the downstream of the NFAT-binding sequence, pNFAT-Luc (Stratagene), were used. More specifically, pNFAT-Luc (Stratagene), in which firefly luciferase gene was introduced in the downstream of 4 copies of the NFAT-binding sequence, was transfected into HEK293 cells for an evaluation of the NFAT transcription activity. Furthermore, for the purpose of eliminating fluctuation due to the transfection efficiency, pRL-CMV (Promega) having Renilla luciferase introduced in the downstream of CMV promoter, was simultaneously transfected so as to correct for the signal derived from firefly luciferase.
Transfection was carried out using LipofectAMINE 2000 reagent (Invitrogen) according to the manual. The medium was exchanged eight hours after the transfection, and the system was incubated overnight. Thereafter, the component A, component B and component C obtained in Example 1, and the deacylation product of the component A prepared in Example 3 were added thereto, and further after one hour, 1 μM ionoinycin was added thereto. After 8 hours, a luciferase reporter assay was carried out.
Luciferase Reporter Assay
The luciferase reporter assay was carried out using Dual-Glo Luciferase Assay System (Promega) according to the manual. That is, the medium was removed, and then Dual-Glo luciferase reagent which had been diluted two times with PBS, was added thereto. The system was stirred, and after 20 minutes, the firefly luciferase activity was measured. Thereafter, an equal amount of Dual-Glo Stop&Glo reagent was added to the system, the mixture was stirred, and then the Renilla luciferase activity was measured. The luciferase activity measurement was carried out using MiniLumat LB 9506 (EG&G Berthold), and the amount of luminescence by luciferase was quantitatively detected. For both luciferases, the duration for luciferase activity measurement was set to 2 seconds.
Calculation of NFAT Signal Inhibitory Rate.
All of the NFAT transcription activity values (firefly luciferase activity) were corrected by dividing the values of the Renilla luciferase activity introduced for the transfection efficiency correction. Thereafter, the NFAT signal inhibitory rate was calculated by the following expression.
NFAT signal inhibitory rate (%)=100−(Test sample and ionomycin-added group−non-stimulation group)/(Ionomycin only-added group−non-stimulation group)×100

Compound	hair shaft elongation ratio (hair-growing effect) (swine hair follicles)	NFAT signal inhibitory rate (NFAT signal)
C/C=C(/C)C(=O)OC1c2c(ccc3ccc(=O)oc23)O[C@@H]1C(C)(C)OC(=O)/C(C)=C\C (stereo partly drawn) [component A, archangelicin]	significant hair shaft elongation	inhibited the NFAT signal; also recorded: strong NFAT signal inhibitory activity
C/C=C(/C)C(=O)OC1c2c(ccc3ccc(=O)oc23)OC1C(C)(C)OC(=O)CC(C)C (stereo not drawn) [component B, 3′-angeloyloxy-4′-isovaleryloxy-2′,3′-dihydrooroselol]	significant hair shaft elongation	inhibited the NFAT signal; also recorded: strong NFAT signal inhibitory activity
C/C=C(/C)C(=O)OC1c2c(ccc3ccc(=O)oc23)O[C@@H]1C(C)(C)OC(=O)C=C(C)C (stereo partly drawn) [component C, 3′-angeloyloxy-4′-senecioyloxy-2′,3′-dihydrooroselol]	–	inhibited the NFAT signal; also recorded: strong NFAT signal inhibitory activity
C/C=C(/C)C(=O)OC(C)(C)[C@H]1Oc2ccc3ccc(=O)oc3c2[C@H]1O [deacylation product of the component A, 3′-hydroxy-4′-angeloyloxy-2′,3′-dihydrooroselol]	–	inhibited the NFAT signal
